Measured values reported in patent US20240382448A1, “METHODS FOR TREATING CORONAVIRUS INFECTION” (priority 2021, published 2024).
Where two headings read alike, the source gives them in different places.

How the values were obtained:
[1] = tested on: SARS-CoV-2 (isolate USA WA1/2020); format: cell-based; conditions: Calu3 cells, 2 h pretreatment, MOI=0.5, 48 h post-infection, compared to DMSO control
[2] = tested on: Calu3 (ATCC, HTB-55) cells; conditions: average of three replicates, (sample well/aggregated DMSOavg)*100

Compound | % Infection ([1]; 0.02 μM) [%] | % Infection ([1]; 0.07 μM) [%] | % Infection ([1]; 0.21 μM) [%] | % Infection ([1]; 0.62 μM) [%] | % Infection ([1]; 1.85 μM) [%] | % Infection ([1]; 5.56 μM) [%] | % Infection ([1]; 16.67 μM) [%] | % Infection ([1]; 50.00 μM) [%] | Viability ([2]; 0.02 μM) | Viability ([2]; 0.07 μM) | Viability ([2]; 0.21 μM) | Viability ([2]; 0.62 μM) | Viability ([2]; 1.85 μM) | Viability ([2]; 5.56 μM) | Viability ([2]; 16.67 μM) | Viability ([2]; 50.00 μM)
C[C@H]1[C@H](OC(=O)CCC(=O)O)O[C@@H]2O[C@@]3(C)CC[C@H]4[C@H](C)CC[C@@H]1[C@@]24OO3 [Artesunate] | 110.9 | 90.0 | 80.7 | 44.7 | 18.0 | 14.7 | 16.1 | 4.7 | 95.4 | 102.6 | 100.5 | 97.7 | 95.1 | 92.9 | 91.1 | 78.3
C[C@H]1[C@@H](O)O[C@@H]2O[C@@]3(C)CC[C@H]4[C@H](C)CC[C@@H]1[C@@]24OO3 [Dihydroartemisinin] | 76.6 | 103.6 | 73.6 | 23.0 | 13.5 | 7.0 | 12.8 | 2.0 | – | – | – | – | – | – | – | –
COc1cc(-c2oc3cc(O)cc(O)c3c(=O)c2O)ccc1O [Isorhamnetin] | 93.6 | 79.5 | 103.8 | 60.4 | 83.8 | 5.3 | 7.9 | – | 99.6 | 99.6 | 99.4 | 98.8 | 101.0 | 99.8 | 83.7 | 73.0
